# From patent publication US20150072995A1, “TREATMENT OF MALE SEXUAL DYSFUNCTION” (Ixchelsis Limited, priority 2002, published 2015)
# Read-outs that look alike come from different tables or passages of the source.
# Key:
# [1] = system: sexually-experienced rats; assay: Male sexual behaviour model (copulatory behaviour with receptive female); assay type: in vivo, rat
# Description: For all the sexual behaviour tests, the male rats were placed in an observation arena (50-60 cm diameter), starting 5 hours into the dark cycle and observed under red illumination. Three to four minutes after placing the male in the arena, a receptive female (ovariectomised, oestradiol benzoate/progesterone injection 48 hour before behavioural study) was introduced into the arena and the following parameters noted: • i) ejaculatory latency (EJL; time taken from addition of receptive female into the arena to ejaculation); • ii) copulatory efficiency (CE; ejaculatory latency/the number of intromissions to ejaculation, i.e. the number of seconds between intromissions); • iii) intromission frequency (IF; the number of intromissions to ejaculation); • iv) mount frequency (MF; the number of mounts to ejaculation); • v) post ejaculatory interval (PEI; the time taken from ejaculation to the commencement of copulatory behaviour).
# [2] = target: T1, oxytocin receptor (Homo sapiens, UniProt P30559); assay: biochemical
# T1 sequence (P30559 1-389): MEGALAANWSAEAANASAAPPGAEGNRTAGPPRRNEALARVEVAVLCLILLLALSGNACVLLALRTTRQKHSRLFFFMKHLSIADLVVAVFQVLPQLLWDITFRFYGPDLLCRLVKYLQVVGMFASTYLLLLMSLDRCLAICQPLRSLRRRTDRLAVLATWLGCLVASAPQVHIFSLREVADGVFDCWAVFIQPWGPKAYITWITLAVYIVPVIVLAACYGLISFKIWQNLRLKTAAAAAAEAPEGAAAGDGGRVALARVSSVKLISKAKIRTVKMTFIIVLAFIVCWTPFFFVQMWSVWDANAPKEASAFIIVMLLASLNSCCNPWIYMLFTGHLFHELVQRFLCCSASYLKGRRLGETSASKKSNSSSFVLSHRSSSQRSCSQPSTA
# Description: • a) HTA stock compounds at 4 mM in 100% DMSO • b) Dilute compounds to 200 μM in dH2O. • c) Further dilute compounds to 100 μM in 100 mM Tris-HCl, pH 7.8, 20 mM MgCl2. […]
# • Cell pellets are retrieved from the freezer, thawed on ice and resuspended in 3 ml of membrane prep buffer per ml packed cell volume. • The suspension is then homogenised using a mechanical homogeniser for several bursts of 5 secs on ice before centrifuging at 25,000×g for 30 mins. • After resuspending the pellet in 1 ml of freezing buffer per 1 ml of the original packed cell volume the suspension is briefly homogenised to remove small lumps. Protein concentrations are then measured and the membrane suspension is finally frozen in aliquots at a minimum of 5 mg/ml at −80° C.
# • Membranes are thawed on ice before diluting to 1 mg/ml in assay buffer. […] Following a 4 hour incubation at room temperature, the plates are counted using the TopCount NXT for 30 s/well.
# For the test compounds, the amount of ligand bound to the receptor is expressed as follows: […]
# [3] = system: anaesthetised rats; assay: Penile erection and p-chloroamphetamine (PCA)-induced ejaculation test in anaesthetised rats; assay type: in vivo, rat
# [4] = CNS penetration; conditions: in vivo
# [5] = target: T2, Human cloned vasopressin V1a receptor in CHO cells (Homo sapiens, UniProt P37288); assay: Vasopressin V1a receptor binding assay (3H-AVP, filtration); conditions: printed as [6.3 nM OT: 148 nM V1a]; read-out: V1a (vasopressin V1a receptor affinity)
# T2 construct: expressed in transfected cells; host or cells: CHO cells (membrane preparation)
# T2 sequence (P37288 whole entry): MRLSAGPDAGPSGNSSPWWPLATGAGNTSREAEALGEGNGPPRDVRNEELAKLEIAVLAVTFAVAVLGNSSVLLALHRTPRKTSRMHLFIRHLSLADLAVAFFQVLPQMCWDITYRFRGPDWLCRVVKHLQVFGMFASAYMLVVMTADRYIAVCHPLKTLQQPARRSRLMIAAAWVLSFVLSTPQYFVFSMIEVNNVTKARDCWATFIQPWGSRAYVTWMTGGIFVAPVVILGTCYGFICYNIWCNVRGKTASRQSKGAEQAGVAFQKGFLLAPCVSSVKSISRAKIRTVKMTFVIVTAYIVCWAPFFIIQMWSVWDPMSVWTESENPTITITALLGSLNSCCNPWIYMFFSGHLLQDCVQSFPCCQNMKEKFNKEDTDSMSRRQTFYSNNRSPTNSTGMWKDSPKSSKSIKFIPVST
# Description: B. Vasopressin VIA Receptor Binding Assay
# iii) Membrane Preparation • Frozen cell pellets are retrieved from the freezer and thawed gently on ice. • 3 ml of membrane prep buffer per ml of original packed cell volume is • added and the suspension homogenised with a polytron for several bursts • of 5 seconds on ice until well dispersed before centrifuging at 1000 rpm for 10 mins • The supernatant is removed and stored on ice. A further 3 ml of membrane prep buffer per ml of original packed cell volume is added to the pellet, homogenised on ice and then centrifuged at 1000 rpm for 10 mins • The supernatant is removed, added to the previously removed volume of supernatant and then centrifuged at 25,000×g and 4° C. for 30 mins • The 25,000×g pellet is re-suspended by homogenisation in 1 ml of freezing buffer per ml of original packed cell volume and the protein concentration determined […]
# Specific binding is calculated as follows: […]
# [6] = system: anaesthetised rats; assay: Splanchnic nerve-stimulated seminal vesicle pressure in anaesthetised rats; assay type: in vivo, rat
# Source text: Seminal vesicle contraction is essential for emission and the seminal fluid delivered into the prostatic urethra is thought to trigger ejaculation. Oxytocin has direct contractile effects on mammalian seminal vesicles and may additionally have a neuromodulator role influencing sympathetic innervation during ejaculation. In this study seminal vesicle contraction was reduced by 41% after a 1 mgkg^−1 bolus injection (see FIG. 2 below).
# [7] = Free plasma concentration in rats; assay type: in vivo, rat; conditions: for concentration at 30 minutes: rat, plasma, preliminary pharmacokinetic studies
# [8] = system: human volunteers; conditions: cited from earlier work
# [9] = system: rats; conditions: cited from earlier work
# [10] = system: male animals; conditions: cited from earlier work
# [11] = system: rats, rabbits and monkeys; conditions: cited from earlier work
# [12] = system: rat; conditions: cited from earlier work
# [13] = system: rat; conditions: 100 ng/rat icv; cited from earlier work
# [14] = system: experienced male rats; conditions: ICV injection, Argiolas et al 1988; cited from earlier work
# [15] = infusion into the 3rd ventricle
molecule,measurement,setting,value
"Cc1ccccc1N1CCN(S(=O)(=O)CC23CCC(C[C@@H]2NC(=O)[C@@H](N)CCS(C)(=O)=O)C3(C)C)CC1 (stereo partly drawn) [L-368,899]",effect on copulatory efficiency,[1]; 50 ng/rat icv,no significant effects
same,effect on copulatory efficiency,"[1]; any of the doses tested, 0.05-10 mgkg^−1 sc",no effects
same,effect on copulatory behaviour,[1]; doses up to 10 mgkg^−1 sc,no effect
same,Ki,[2],6.3 nM
same,PCA-induced erections resulting in penile cups,[3]; 0.1 mg/kg,98%
same,PCA-induced erections resulting in penile flares,[3]; 0.1 mg/kg,88%
same,PCA-induced erections resulting in penile cups,[3]; 1.0 mg/kg sc,95%
same,PCA-induced erections resulting in penile flares,[3]; 1.0 mg/kg sc,61%
same,Ejaculation delayed (near maximal effect),"[3]; PCA-induced ejaculation, at free plasma concentrations 5.4±1.5 nM",140%
same,delay of PCA-induced ejaculation,"[3]; anaesthetised rats, 0.1-10 mgkg^−1 sc",significantly delayed
same,CNS penetration,[4],very poor
same,Ki,[5],148 nM
same,splanchnic nerve-stimulated increases in seminal vesicle pressure,[6]; 1-3 mgkg^−1 iv,significantly reduced
same,reduction of seminal vesicle contraction,[6]; after a 1 mgkg^−1 bolus injection,41%
same,free plasma concentration,"[7]; after a 1.0 mgkg^−1 iv injection, based on literature PK and protein plasma binding",approximately 60 nM
same,free plasma concentration at which ejaculation was delayed 140%,"[7]; anaesthetised rats, sc",5.4 ± 1.5 nM
same,concentration at 30 minutes,[7]; 30 minutes after 1 mgkg^−1 sc,4.5 nM
same,concentration at 30 minutes,[7]; 30 minutes after 10 mgkg^−1 sc,40 nM
C=CCN1CC[C@]23c4c5ccc(O)c4O[C@H]2C(=O)CC[C@@]3(O)[C@H]1C5 [naloxone],effect on ejaculation,[8],no effect
same,serum oxytocin pulse typically observed at ejaculation,[8],eliminated
CC[C@H](C)[C@@H]1NC(=O)[C@H](Cc2ccc(O)cc2)NC(=O)[C@@H](N)CSSC[C@@H](C(=O)N2CCC[C@H]2C(=O)N[C@@H](CC(C)C)C(=O)NCC(N)=O)NC(=O)[C@H](CC(N)=O)NC(=O)[C@H](CCC(N)=O)NC1=O [oxytocin],ejaculatory latency,[9]; [15],no effect
same,latencies to the first mount and intromission,[9]; [15],increased
same,post ejaculatory refractory periods,[9]; [15],lengthened
same,ejaculatory latency,[9]; intravenous infusion,no effect
same,number of intromissions made before ejaculation,[9]; intravenous infusion,dose dependently reduced
same,ejaculation latency and post-ejaculation interval,[10]; injected either centrally or peripherally,shortens
same,penile erections,[10]; injected into specific areas of the brain (periventricular nucleus of the hypothalamus),facilitates
same,latency to achieve ejaculation,[11]; central administration,reduce
same,post-ejaculatory interval,[11]; central administration,shorten
same,induction of penile erection,"[11]; rats, rabbits and monkeys",one of the most potent agents to induce penile erection
d(CH2)5Tyr(Me)-Orn^8-vasotocin,copulatory behaviour,[1]; 50 ng/rat icv,abolished
same,effect on ejaculatory latency,"[1]; doses up to 25 ng/rat icv, previous studies",no effect
same,number of non-contact erections,[12]; 100 ng/rat icv,reduces
same,non-contact penile erections,"[12]; Melis et al 1999, dose not given",significantly reduces
same,drug-induced erections,[13],abolished
same,ejaculation,[14],abolishment
same,penile erection,[14],prevent penile erection
same,sexual performance,[14],impair
